These are literature values, as cited in publication PMC9528030 (ACS chemical biology, 2022).

The test system of this series is SARS-CoV-2. The note with it: read-out: EC50 in a CPE assay; cited from earlier work.

One may read the EC50 as the midpoint of the concentration-response curve. As to `C[C@@H](OC(C)(C)C)[C@H](NC(=O)OCc1ccccc1)C(=O)N[C@@H](CC1CCCCC1)C(=O)N[C@H](C=O)C[C@@H]1CCNC1=O` [MPI8], the EC50 was 30 nM.
